PubChem BioAssay (NCI)
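These data come from cells grown in 96-well plates and exposed to compound for 48 hours at five concentrations. TGI is the concentration that stops growth completely.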

Assays:
Assay in all cases: DTP human tumour cell line panel, 48 h
SK-MEL-28 melanoma = test system: SK-MEL-28 melanoma
MDA-N = test system: MDA-N
CAKI-1 renal = test system: CAKI-1 renal
K-562 leukemia = test system: K-562 leukemia
OVCAR-4 ovarian = test system: OVCAR-4 ovarian
SNB-75 CNS = test system: SNB-75 CNS
OVCAR-8 ovarian = test system: OVCAR-8 ovarian
UACC-62 melanoma = test system: UACC-62 melanoma
MCF7 breast = test system: MCF7 breast
COLO 205 colon = test system: COLO 205 colon
U251 CNS = test system: U251 CNS
A549 NSCLC = test system: A549 NSCLC
BT-549 breast = test system: BT-549 breast
DU-145 prostate = test system: DU-145 prostate
CCRF-CEM leukemia = test system: CCRF-CEM leukemia
HOP-62 NSCLC = test system: HOP-62 NSCLC
NCI-H460 lung = test system: NCI-H460 lung
RXF 393 renal = test system: RXF 393 renal
NCI-H226 lung = test system: NCI-H226 lung
HCT-116 colon = test system: HCT-116 colon
M14 melanoma = test system: M14 melanoma
OVCAR-3 ovarian = test system: OVCAR-3 ovarian
MOLT-4 leukemia = test system: MOLT-4 leukemia
NCI/ADR-RES ovarian = test system: NCI/ADR-RES ovarian
RPMI-8226 leukemia = test system: RPMI-8226 leukemia
HOP-92 NSCLC = test system: HOP-92 NSCLC
UACC-257 melanoma = test system: UACC-257 melanoma
UO-31 renal = test system: UO-31 renal
NCI-H23 lung = test system: NCI-H23 lung
NCI-H522 lung = test system: NCI-H522 lung
SF-295 CNS = test system: SF-295 CNS
IGROV1 ovarian = test system: IGROV1 ovarian
EKVX NSCLC = test system: EKVX NSCLC
786-0 renal = test system: 786-0 renal
SK-OV-3 ovarian = test system: SK-OV-3 ovarian
SF-539 CNS = test system: SF-539 CNS
SF-268 CNS = test system: SF-268 CNS
ACHN renal = test system: ACHN renal
HL-60(TB) leukemia = test system: HL-60(TB) leukemia
SR leukemia = test system: SR leukemia
SK-MEL-5 melanoma = test system: SK-MEL-5 melanoma
TK-10 renal = test system: TK-10 renal
PC-3 prostate = test system: PC-3 prostate
HT29 colon = test system: HT29 colon
SK-MEL-2 melanoma = test system: SK-MEL-2 melanoma
SN12C renal = test system: SN12C renal
SW-620 colon = test system: SW-620 colon
HCT-15 colon = test system: HCT-15 colon
OVCAR-5 ovarian = test system: OVCAR-5 ovarian
MALME-3M melanoma = test system: MALME-3M melanoma
SNB-19 CNS = test system: SNB-19 CNS
HCC-2998 colon = test system: HCC-2998 colon
MDA-MB-231 breast = test system: MDA-MB-231 breast

Measured: TGI

CN(C)CCCNC(=O)c1c(-c2cccnc2)cnc2ccccc12
not listed: MDA-MB-231 breast
> 100 µM: all other assays above

CN(C)CCOc1ccc2[nH]c(C(=O)N3CC(CCl)c4c3cc(NC(=O)OCc3ccc([N+](=O)[O-])cc3)c3ccccc43)cc2c1 (configuration not stated)
2.61 µM: SW-620 colon
3.29 µM: COLO 205 colon
2.88 µM: M14 melanoma
2.56 µM: UO-31 renal
5.36 µM: UACC-62 melanoma
3.72 µM: NCI-H226 lung
3.58 µM: HCT-15 colon
2.76 µM: SK-MEL-5 melanoma
1.9 µM: DU-145 prostate
2.09 µM: 786-0 renal
> 100 µM: U251 CNS | NCI-H460 lung | UACC-257 melanoma | TK-10 renal | HCC-2998 colon
3.23 µM: MDA-MB-231 breast
2.95 µM: SN12C renal | OVCAR-5 ovarian
2.17 µM: HCT-116 colon
2.52 µM: A549 NSCLC
2.99 µM: SF-539 CNS
2.86 µM: MDA-N | MALME-3M melanoma
3.06 µM: SK-MEL-28 melanoma
3.14 µM: EKVX NSCLC
